Measured values: ChEMBL document CHEMBL4651402, “Screening of ~5500 FDA-approved drugs and clinical candidates for anti-SARS-CoV-2 activity” (2021)

System: SARS-CoV-2
Test: microbe, parasite or virus in culture
Details: Severe acute respiratory syndrome coronavirus 2, Vero C1008, 48 h

Structure (SMILES)	IC50 [µM]	IC50 (read-out: pIC50 (converted)) [µM]
Cc1cc(C)c2c3ccccc3n(Cc3ccc([C@@H](C(=O)N[C@@H](CO)c4ccccc4)C4CCCC4)cc3)c2n1	> 20	> 20
COC(=O)[C@H]1[C@@H](OC(=O)c2ccccc2)C[C@@H]2CC[C@H]1N2C [COCAINE]	> 20	> 20
N[C@@H](C(=O)N[C@@H]1C(=O)N2C(C(=O)O)=C(Cl)CC[C@H]12)c1ccccc1 [LORACARBEF ANHYDROUS]	> 20	> 20
Cc1ccccc1OCC(O)CNCCOc1ccc(C(N)=O)cc1 (configuration not stated) [TOLAMOLOL]	> 20	> 20
NC1CCN(c2c(F)cc3c(=O)c(C(=O)O)cn(C4CC4)c3c2Cl)C1 (configuration not stated) [CLINAFLOXACIN]	> 20	> 20
CC(=O)OC1CCC2(C)C3CC=C4C5CC(C)(C)CCC5(C(=O)O)CC[C@@]4(C)C3(C)CC[C@H]2C1(C)C (some centres not stated)	> 20	> 20
Nc1ncnc2c1ncn2C1OC(COP(=O)(O)O)C(O)C1O (configuration not stated)	> 20	> 20
COc1ccccc1N1CCNCC1	> 20	> 20
O=C(Nc1cccc2c(=O)cc(-c3nnn[nH]3)oc12)c1ccc(OCCCCc2ccccc2)cc1	> 100	> 100
CC(O)(P(=O)(O)O)P(=O)(O)O [ETIDRONIC ACID]	> 20	> 20
OC(c1ccccc1)(c1ccccc1)C1CN2CCC1CC2 (configuration not stated) [QUIFENADINE]	> 20	> 20
Nc1nc(N)c2nc(CNc3ccc(C(=O)N[C@@H](CCC(=O)O)C(=O)O)cc3)cnc2n1 [AMINOPTERIN]	> 20	> 20
O=C1NS(=O)(=O)c2ccccc21 [SACCHARIN]	> 20	> 20
CCC(=O)NC[C@@H]1C[C@H]1c1cccc2c1CCO2 [TASIMELTEON]	> 20	> 20
CSC[C@H](NC(=O)COc1cccc2cnccc12)C(=O)N[C@@H](Cc1ccccc1)[C@H](O)C(=O)N1CSC[C@H]1C(=O)NC(C)(C)C	> 20	> 20
CCN1C[C@]2(COC)CC[C@H](OC)[C@]34[C@@H]5C[C@H]6[C@H](OC)[C@@H]5[C@@]5(C[C@@H]6OC)OCO[C@@]5([C@H]13)[C@@H](O)[C@H]24	> 20	> 20

Structure (SMILES)	IC50 [µM]	IC50 (read-out: pIC50 (converted)) [µM]
C[N+](C)(C)CC[N+]1(C)Cc2c(Cl)c(Cl)c(Cl)c(Cl)c2C1 [CHLORISONDAMINE]	> 20	> 20
[2H]C1([2H])COc2ccc(Cc3cc([C@@H]4O[C@H](CO)[C@@H](O)[C@H](O)[C@H]4O)ccc3CC)cc2O1	> 20	> 20
CCC1(C)CC(=O)NC(=O)C1 [BEMEGRIDE]	> 20	> 20
CCOC(=O)n1ccn(C)c1=S [CARBIMAZOLE]	> 20	> 20
O=C(O)C1CC(O)CN1 (configuration not stated)	> 20	> 20
CN1CC[C@]2(C)c3cc(OC(=O)Nc4ccccc4)ccc3N(C)[C@H]12 [BUNTANETAP]	> 20	> 20
CNNCc1ccc(C(=O)NC(C)C)cc1 [PROCARBAZINE]	> 20	> 20
COC(=O)Nc1nc2cc([S+]([O-])c3ccccc3)ccc2[nH]1 (configuration not stated) [OXFENDAZOLE]	> 20	> 20
COc1c2c(cc3c1OCO3)CC[N+](C)=C2 [COTARNINE]	> 20	> 20
CCCNC(C)C(=O)Nc1c(C)csc1C(=O)OC (configuration not stated) [ARTICAINE]	> 20	> 20
O=C(O)CCC(=O)Nc1ccc(S(=O)(=O)Nc2nccs2)cc1 [SUCCINYLSULFATHIAZOLE]	> 20	> 20
CO/N=C(\C#N)[C@@H]1CN2CCC1CC2	> 20	> 20
CC(C)C(Br)C(=O)NC(N)=O (configuration not stated) [BROMISOVALUM]	> 20	> 20
NC(=O)N/N=C/c1ccc([N+](=O)[O-])o1 [NITROFURAZONE]	> 20	> 20
Cc1cc(O)cc(=O)o1	> 20	> 20
